Measurements: PubChem BioAssay AID330 (DTP/NCI, 2004)
“And” between values parts separate entries of the source, which are not always exact repeats. Identical values can stand only once. Inconclusive results and toxic doses are left out.

System: P388 leukemia ip, CD2F1 mice, survival T/C
Test: NCI In Vivo Anticancer Drug Screen. Data for tumor model P388 Leukemia (intraperitoneal) in CD2F1 (CDF1) mice
Details: endpoint: median survival time, higher = longer survival
In short: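 Mice carrying the transplanted tumor received test compound or vehicle. Survival was recorded in each group, and the value is the treated-group measurement divided by that of the vehicle-treated control group.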

[1] = dose: 12.5 mg/kg/injection, schedule: Q01DX009 (ip), vehicle: saline with Tween-80
[2] = dose: 50.0 mg/kg/injection, schedule: Q01DX009 (ip), vehicle: saline with Tween-80
[3] = dose: 100.0 mg/kg/injection, schedule: Q01DX009 (ip), vehicle: saline with Tween-80
[4] = dose: 200.0 mg/kg/injection, schedule: Q01DX009 (ip), vehicle: saline with Tween-80

## CC(=O)N1CN(C)N(C)C1
dose: 60.0 mg/kg/injection, schedule: Q01DX005 (ip), vehicle: Klucel (hydroxypropylcellulose) (HPC)
  T/C: 98 % of control
dose: 120.0 mg/kg/injection, schedule: Q01DX005 (ip), vehicle: Klucel (hydroxypropylcellulose) (HPC)
  T/C: 91 % of control
dose: 240.0 mg/kg/injection, schedule: Q01DX005 (ip), vehicle: Klucel (hydroxypropylcellulose) (HPC)
  T/C: 100 % of control

## CCCCCCCCCCCCCCCCCCSC1=CC(=O)c2ccccc2C1=O
dose: 3.13 mg/kg/injection, schedule: Q01DX009 (ip), vehicle: saline with Tween-80
  T/C: 95 % of control
dose: 6.25 mg/kg/injection, schedule: Q01DX009 (ip), vehicle: saline with Tween-80
  T/C: 95 % of control
[1]
  T/C: 90 % of control
dose: 25.0 mg/kg/injection, schedule: Q01DX009 (ip), vehicle: saline with Tween-80
  T/C: 89 % of control
[2]
  T/C: 97 % of control

## CCNC(=O)n1cccc(OC)c1=O
dose: 50.0 mg/kg/injection, schedule: Q01DX009 (ip), vehicle: saline
  T/C: 101 % of control and 107 % of control
dose: 100.0 mg/kg/injection, schedule: Q01DX009 (ip), vehicle: saline
  T/C: 109 % of control and 114 % of control and 119 % of control
dose: 200.0 mg/kg/injection, schedule: Q01DX009 (ip), vehicle: saline
  T/C: 111 % of control and 116 % of control
dose: 300.0 mg/kg/injection, schedule: Q01DX009 (ip), vehicle: saline
  T/C: 109 % of control

## Clc1ccc2nc(CI)c(CI)nc2c1
dose: 5.5 mg/kg/injection, schedule: Q01DX009 (ip), vehicle: saline with Tween-80
  T/C: 104 % of control
dose: 8.3 mg/kg/injection, schedule: Q01DX009 (ip), vehicle: saline with Tween-80
  T/C: 95 % of control
[1]
  T/C: 100 % of control
dose: 18.7 mg/kg/injection, schedule: Q01DX009 (ip), vehicle: saline with Tween-80
  T/C: 118 % of control
dose: 25.0 mg/kg/injection, schedule: Q04DX003 (ip), vehicle: saline with Tween-80
  T/C: 118 % of control
dose: 50.0 mg/kg/injection, schedule: Q04DX003 (ip), vehicle: saline with Tween-80
  T/C: 118 % of control
dose: 100.0 mg/kg/injection, schedule: Q04DX003 (ip), vehicle: saline with Tween-80
  T/C: 122 % of control

## O=C1NC(=O)C2(CC3CCCC(C2)N3c2ccccc2)N1 (stereo not given)
dose: 100.0 mg/kg/injection, schedule: Q04DX003 (ip), vehicle: DMSO
  T/C: 95 % of control
dose: 200.0 mg/kg/injection, schedule: Q04DX003 (ip), vehicle: DMSO
  T/C: 89 % of control
dose: 400.0 mg/kg/injection, schedule: Q04DX003 (ip), vehicle: DMSO
  T/C: 91 % of control

## O=c1oc(-c2ccccc2CCl)nc2ccccc12
[2]
  T/C: 106 % of control
[3]
  T/C: 104 % of control
[4]
  T/C: 101 % of control

## CN1CCN=C1c1ccc(NC(=O)c2ccc(C(=O)Nc3ccc(C4=NCCN4C)cc3)cc2)cc1
dose: 0.4 mg/kg/injection, schedule: Q01DX009 (ip), vehicle: saline with Tween-80
  T/C: 108 % of control
dose: 3.0 mg/kg/injection, schedule: Q01DX009 (ip), vehicle: saline with Tween-80
  T/C: 150 % of control
dose: 4.0 mg/kg/injection, schedule: Q01DX009 (ip), vehicle: saline
  T/C: 166 % of control
dose: 6.0 mg/kg/injection, schedule: Q01DX009 (ip), vehicle: saline with Tween-80
  T/C: 204 % of control
dose: 6.0 mg/kg/injection, schedule: Q01DX009 (ip), vehicle: saline
  T/C: 187 % of control
dose: 6.25 mg/kg/injection, schedule: Q04DX003 (ip), vehicle: saline with Tween-80
  T/C: 118 % of control
dose: 9.0 mg/kg/injection, schedule: Q01DX009 (ip), vehicle: saline
  T/C: 191 % of control

## C1CCNCC1.CC(=O)[CH-]C(=O)c1ccccc1.CC(=O)[CH-]C(=O)c1ccccc1.CC(=O)[CH-]C(=O)c1ccccc1.CC(=O)[CH-]C(=O)c1ccccc1.[Eu+3]
dose: 100.0 mg/kg/injection, schedule: Q01DX009 (ip), vehicle: Klucel (hydroxypropylcellulose) (HPC)
  T/C: 98 % of control

## CCCCCCCSc1ncnc2c1ncn2C(=O)Sc1ccccc1
dose: 50.0 mg/kg/injection, schedule: Q01DX005 (ip), vehicle: saline with Tween-80
  T/C: 104 % of control
dose: 100.0 mg/kg/injection, schedule: Q01DX005 (ip), vehicle: saline with Tween-80
  T/C: 99 % of control
dose: 200.0 mg/kg/injection, schedule: Q01DX005 (ip), vehicle: saline with Tween-80
  T/C: 107 % of control

## CC([NH-])C(=O)O.[Cu+2].[NH-]C(Cc1cnc[nH]1)C(=O)O (stereo not given)
dose: 25.0 mg/kg/injection, schedule: Q01DX009 (ip), vehicle: saline
  T/C: 97 % of control

## Cc1cc(OC2OC(CO)C(OC3OC(CO)C(O)C(O)C3O)C(O)C2O)c2c(c1)C(=O)c1cccc(O)c1C2=O (stereo not given)
[2]
  T/C: 104 % of control
[3]
  T/C: 104 % of control
[4]
  T/C: 105 % of control
